ChEMBL document CHEMBL1141148, “Antidiabetic activity of passive nonsteroidal glucocorticoid receptor modulators” (J Med Chem, 2005)
The source made the active and inactive calls. No cut-off for these calls is given here.

What follows are compounds tested against T1, Mineralocorticoid receptor (Homo sapiens, UniProt P08235) (assay: Inhibition of human mineralocorticoid receptor). Conditions: not given.
T1 sequence (P08235 whole entry): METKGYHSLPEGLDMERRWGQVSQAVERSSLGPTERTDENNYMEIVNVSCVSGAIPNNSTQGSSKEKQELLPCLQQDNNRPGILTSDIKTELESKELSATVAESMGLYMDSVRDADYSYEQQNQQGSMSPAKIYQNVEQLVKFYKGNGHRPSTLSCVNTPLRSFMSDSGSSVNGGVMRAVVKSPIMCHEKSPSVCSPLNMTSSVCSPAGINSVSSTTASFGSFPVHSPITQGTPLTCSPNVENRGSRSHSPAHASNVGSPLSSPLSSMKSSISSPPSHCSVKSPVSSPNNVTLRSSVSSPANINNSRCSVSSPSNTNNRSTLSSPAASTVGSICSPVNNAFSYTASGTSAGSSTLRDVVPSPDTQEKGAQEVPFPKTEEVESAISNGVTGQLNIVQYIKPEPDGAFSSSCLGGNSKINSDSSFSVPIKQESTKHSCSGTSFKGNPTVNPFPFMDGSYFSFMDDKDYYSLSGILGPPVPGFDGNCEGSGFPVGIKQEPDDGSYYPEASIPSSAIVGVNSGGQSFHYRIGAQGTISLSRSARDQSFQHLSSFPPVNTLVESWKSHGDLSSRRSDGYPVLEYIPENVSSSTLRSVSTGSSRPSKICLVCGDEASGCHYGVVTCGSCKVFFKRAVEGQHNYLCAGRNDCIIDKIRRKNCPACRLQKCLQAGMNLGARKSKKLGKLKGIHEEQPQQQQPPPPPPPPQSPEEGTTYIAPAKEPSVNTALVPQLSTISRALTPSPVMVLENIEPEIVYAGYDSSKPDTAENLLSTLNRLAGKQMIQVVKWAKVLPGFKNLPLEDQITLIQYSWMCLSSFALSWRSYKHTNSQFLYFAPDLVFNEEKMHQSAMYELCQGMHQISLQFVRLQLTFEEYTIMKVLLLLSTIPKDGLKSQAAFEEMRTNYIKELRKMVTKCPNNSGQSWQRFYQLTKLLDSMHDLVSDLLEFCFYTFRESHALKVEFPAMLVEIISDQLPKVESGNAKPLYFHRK

Row | SMILES | IC50
1 | Cc1c(NS(C)(=O)=O)cccc1N(Cc1ccc(Oc2ccc(Cl)c(OCC(=O)O)c2)cc1)Cc1ccc(F)cc1F | 1000 nM
2 | Cc1c(NS(C)(=O)=O)cccc1N(Cc1ccccc1)Cc1ccc(Oc2ccc(OCC(=O)O)cc2)cc1 | 690 nM
3 | Cc1c(NS(C)(=O)=O)cccc1N(Cc1ccccc1)Cc1ccc(Oc2cccc(OCCCC(=O)NCCCC(=O)O)c2)cc1 | 120 nM
4 | CC#C[C@]1(O)CC[C@H]2[C@@H]3CCC4=CC(=O)CC[C@]4(Cc4ccc(C)cc4)C3=CC[C@@]21C | 6300 nM

The compounds below were run against T2, Glucocorticoid receptor (Homo sapiens, UniProt P04150). Conditions: not given.
T2 sequence (P04150 whole entry): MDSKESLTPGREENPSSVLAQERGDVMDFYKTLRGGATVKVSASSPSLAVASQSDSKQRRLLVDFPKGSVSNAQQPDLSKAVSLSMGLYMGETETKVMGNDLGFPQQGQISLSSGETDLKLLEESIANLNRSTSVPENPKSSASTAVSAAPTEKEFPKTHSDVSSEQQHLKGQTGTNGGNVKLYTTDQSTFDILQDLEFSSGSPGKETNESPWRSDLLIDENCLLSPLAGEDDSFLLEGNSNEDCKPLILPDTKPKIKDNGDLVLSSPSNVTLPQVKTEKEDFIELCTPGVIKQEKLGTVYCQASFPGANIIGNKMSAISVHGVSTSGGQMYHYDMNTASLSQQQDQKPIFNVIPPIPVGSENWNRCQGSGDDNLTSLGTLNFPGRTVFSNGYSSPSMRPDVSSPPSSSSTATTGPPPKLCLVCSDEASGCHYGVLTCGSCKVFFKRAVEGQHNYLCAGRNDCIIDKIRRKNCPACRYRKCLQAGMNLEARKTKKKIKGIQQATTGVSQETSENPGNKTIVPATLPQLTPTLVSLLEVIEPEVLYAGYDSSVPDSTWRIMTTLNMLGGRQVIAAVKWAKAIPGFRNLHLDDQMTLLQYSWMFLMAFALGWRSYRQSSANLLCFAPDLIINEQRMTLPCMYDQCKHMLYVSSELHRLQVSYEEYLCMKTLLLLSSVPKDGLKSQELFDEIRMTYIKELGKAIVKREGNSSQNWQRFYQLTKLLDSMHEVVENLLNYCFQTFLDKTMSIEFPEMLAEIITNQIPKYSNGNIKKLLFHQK

Row | SMILES | IC50
5 | Cc1c(NS(C)(=O)=O)cccc1N(Cc1ccc(Oc2ccc(Cl)c(OCC(=O)O)c2)cc1)Cc1ccc(F)cc1F | 2.6 nM
6 | CC#C[C@]1(O)CC[C@H]2[C@@H]3CCC4=CC(=O)CC[C@]4(Cc4ccc(C)cc4)C3=CC[C@@]21C | 2.4 nM
7 | Cc1c(NS(C)(=O)=O)cccc1N(Cc1ccc(Oc2ccc(F)c(OCC(=O)O)c2)cc1)Cc1ccc(F)cc1F | 4.8 nM

What follows are compounds tested against T3, Androgen receptor (Homo sapiens, UniProt P10275). Conditions: not given.
T3 sequence (P10275 whole entry): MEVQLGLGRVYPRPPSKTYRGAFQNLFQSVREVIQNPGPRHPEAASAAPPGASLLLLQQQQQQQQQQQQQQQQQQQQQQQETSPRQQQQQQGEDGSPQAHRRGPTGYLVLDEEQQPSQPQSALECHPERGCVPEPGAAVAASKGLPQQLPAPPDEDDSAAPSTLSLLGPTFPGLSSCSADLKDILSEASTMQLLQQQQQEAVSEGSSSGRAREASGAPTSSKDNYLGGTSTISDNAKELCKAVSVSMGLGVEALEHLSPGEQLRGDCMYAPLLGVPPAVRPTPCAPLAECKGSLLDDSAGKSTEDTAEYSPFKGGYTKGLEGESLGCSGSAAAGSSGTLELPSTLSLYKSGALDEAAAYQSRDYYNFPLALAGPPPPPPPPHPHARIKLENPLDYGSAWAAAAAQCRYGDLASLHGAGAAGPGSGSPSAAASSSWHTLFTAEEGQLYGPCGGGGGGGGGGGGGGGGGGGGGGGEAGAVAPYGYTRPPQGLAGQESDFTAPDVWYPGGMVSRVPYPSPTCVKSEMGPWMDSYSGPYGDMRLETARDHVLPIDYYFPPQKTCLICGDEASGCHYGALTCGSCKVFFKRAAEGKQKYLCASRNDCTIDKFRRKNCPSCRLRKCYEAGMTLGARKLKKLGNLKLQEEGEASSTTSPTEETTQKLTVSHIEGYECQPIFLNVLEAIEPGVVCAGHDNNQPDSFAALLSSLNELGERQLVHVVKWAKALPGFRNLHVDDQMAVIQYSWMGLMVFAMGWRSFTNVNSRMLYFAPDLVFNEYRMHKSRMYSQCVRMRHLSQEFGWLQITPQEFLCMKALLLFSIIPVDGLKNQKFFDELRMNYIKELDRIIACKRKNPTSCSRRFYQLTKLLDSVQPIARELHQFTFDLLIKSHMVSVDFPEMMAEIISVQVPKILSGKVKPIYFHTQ

Row | SMILES | IC50
8 | Cc1c(NS(C)(=O)=O)cccc1N(Cc1ccc(Oc2ccc(Cl)c(OCC(=O)O)c2)cc1)Cc1ccc(F)cc1F | 3600 nM
9 | Cc1c(NS(C)(=O)=O)cccc1N(Cc1ccccc1)Cc1ccc(Oc2ccc(OCC(=O)O)cc2)cc1 | 11700 nM
10 | Cc1c(NS(C)(=O)=O)cccc1N(Cc1ccccc1)Cc1ccc(Oc2cccc(OCCCC(=O)NCCCC(=O)O)c2)cc1 | 1600 nM
11 | CC#C[C@]1(O)CC[C@H]2[C@@H]3CCC4=CC(=O)CC[C@]4(Cc4ccc(C)cc4)C3=CC[C@@]21C | 6500 nM

What follows are compounds tested against T4, Glucocorticoid receptor (Homo sapiens) (UniProt P04150). Conditions: Huh-7.
T4 sequence (whole entry): T2 sequence (P04150 whole entry)

Row | Agonistic activity | SMILES
12 | inactive | Cc1c(NS(C)(=O)=O)cccc1N(Cc1ccc(Oc2ccc(Cl)c(OCC(=O)O)c2)cc1)Cc1ccc(F)cc1F
13 | inactive | Cc1c(NS(C)(=O)=O)cccc1N(Cc1ccccc1)Cc1ccc(Oc2cccc(OCCCC(=O)NCCCC(=O)O)c2)cc1

Row | SMILES | Agonistic activity
14 | Cc1c(NS(C)(=O)=O)cccc1N(Cc1ccc(Oc2ccc(F)c(OCC(=O)O)c2)cc1)Cc1ccc(F)cc1F | inactive
